Earlier results on one sequence are cited in US9168307B2, “Mitochondrial-targeted cationic nanoparticles comprising CaMKII inhibitors and uses thereof for treating and preventing diseases and disorders associated with CaMKII activity” (University of Iowa Research Foundation, priority 2012, dated 2015).

For orientation: IC50 means the concentration at which inhibition is half-maximal.

The data set has as its system CaMKII. Particulars: starting point for dose response curve.

On to “KRPPKLGQIGRAKRVVIEDDR (SEQ ID NO:1) [peptide]”, for which the IC50 was 100 nM.
